Series [1] has as its system healthy male subjects. Description: Example 5 cold pain test. To be noted: 10 mg IV infusion over 15 min.
Series [2] has as its system healthy male subjects. The series can be described thus: Example 5 pupil size. Particulars: IV morphine 10 mg; Example 2 SZO-24 dosage form 2×20 mg. In kind it is in vivo, human.
The conditions of series [3]: analyte in plasma after 40 mg (oxycodone HCl) SZO-24 dosage form.
For series [4] the following is noted: human plasma; orally administered immediate release oxycodone; cited from earlier work.
Series [5] has as its system Male Sprague-Dawley (SD) rats. Description: Example 8 rat tolerance study, tail-flick assay. To be noted: for Tail flick results: mean ± SD.
Experimental: The biphasic dosing regimen used subcutaneous (SC) infusion, and the SZO regimen used subcutaneously-implanted ALZET® osmotic pumps. The vehicle control for the study was 0.9% saline.
The rodent tail-flick assay was used to assess analgesia (antinociception). […] In the assay, rodents are briefly restrained and radiant heat is applied to the tip of the tail. The time it takes for the animal to flick its tail is recorded; a delay in this response compared to pre-dose readings is indicative of antinociception.
An IITC Model 33 Tail Flick Analgesia Meter was used to apply heat to the animal's tail (IITC Life Science, Woodland Hills, Calif.). […] (this temperature allows pre-warming of the animal's tail to allow for more uniform measurements from day-to-day and test-to-test); • (3) Cutoff Time: 10 seconds (i.e., the length of time from the start of the test until the unit automatically ends the test to prevent tissue damage).
The animals were briefly restrained in plexiglass restrainers and radiant heat was applied to the tip of the animal's tail (approximately 1-2 cm from the tip). After the temperature reached 30° C., the meter increased the light intensity providing a noxious stimulus to the animal's tail. The time in seconds for the animal to flick its tail was recorded for each animal.
Tail flick latency values were converted to a percentage of the maximum possible effect (%MPE) using the following formula: %MPE=100×(ΔL/ΔLmax) where: ΔL=Post-dose Latency−Pre-dose Latency, and ΔLmax=Cutoff Time−Pre-dose Latency.
For the biphasic dosing regimen, the animals were subcutaneously infused using a computer-controlled Harvard syringe pump. […] The animals had catheters implanted subcutaneously with approximately 7 cm of PE 10 tubing. The tubing was secured with sutures and sterile surgical skin glue to prevent accidental removal of the catheter.
For the SZO dosing regimen, ALZET® osmotic pumps (Model 2ML1) were implanted subcutaneously in the animals. […] For the SZO dosing, the rats were not tethered.
Male Sprague-Dawley (SD) rats obtained from Charles River (Hollister, Calif.) and weighing at least 200g were used in the experiments. Extra animals were employed in the biphasic dosing regimen to take account of damaged catheters, but only enough animals were dosed on Day +3 to replace the animals with damaged catheters.
Intuitively, the difference between the effect of the same test on Day +3 and Day −1 should be a direct measure of tolerance. The data collected from rats tested for responses at 0, 0.25, 0.5, 0.75, and 1 mg/kg were thus used to perform the statistical analysis.
The data (difference between Day +3 and Day −1) were analyzed by the analysis of variance (ANOVA) method. The full variance model consisted of the three primary factors, their first-order interaction terms and their second order interaction term, namely: • dosing regimen, • 3-day treatment, • tail flick testing dose, • dosing regimen×3-day treatment, • dosing regimen×tail flick testing dose, • 3-day treatment×tail flick testing dose, and • dosing regiment×3-day treatment x tail flick testing dose.
For series [6] the following is noted: cited from earlier work.

Consider `CN1CC[C@]23c4c5ccc(O)c4O[C@H]2[C@@H](O)C=C[C@H]3[C@H]1C5` [IV morphine, morphine], for which the “separation from placebo in the cold pain test” value in series [1] was “did not statistically separate from placebo”. For the same compound, the pupil size changes entry in series [2] is reported as “consistent with their respective pharmacokinetic profiles”.

Regarding `COc1ccc2c3c1O[C@H]1C(=O)CC[C@@]4(O)[C@@H](C2)NCC[C@]314` [Noroxycodone], in series [3], the “AUCinf, single dose” value is 421.2 ng·h/mL and the “Cmax, single-dose plasma concentration” value stood at 13.12 ng/mL.

As to `COc1ccc2c3c1OC1C(=O)CC[C@@]4(O)[C@@H](C2)N(C)CC[C@]314` (stereo partly shown) [oxycodone, 4,5-epoxy-14-hydroxy-3-methoxy-17-methylmorphinan-6-one], the half-life entry in series [4] was “about 3.2 hours”. Moreover, the Tail flick results in series [5] (Biphasic dosing (SC infusion, syringe pump, 10 mg/(kg · d)), 3-day treatment oxycodone, testing dose 0 mg/kg, Day +3, n = 7) came out at 1.55 ± 4.70 % MPE; in series [5] (Biphasic dosing (SC infusion, syringe pump, 10 mg/(kg · d)), 3-day treatment oxycodone, testing dose 0.25 mg/kg SC, Day +3, n = 8) it was 0.48 ± 2.28 % MPE; in series [5] (Biphasic dosing (SC infusion, syringe pump, 10 mg/(kg · d)), 3-day treatment oxycodone, testing dose 0.25 mg/kg SC, Day −1, n = 8), 4.75 ± 6.80 % MPE; in series [5] (Biphasic dosing (SC infusion, syringe pump, 10 mg/(kg · d)), 3-day treatment oxycodone, testing dose 0.5 mg/kg SC, Day +3, n = 8) it was 10.64 ± 7.72 % MPE; in series [5] (Biphasic dosing (SC infusion, syringe pump, 10 mg/(kg · d)), 3-day treatment oxycodone, testing dose 0.5 mg/kg SC, Day −1, n = 8), 34.19 ± 28.28 % MPE; in series [5] (Biphasic dosing (SC infusion, syringe pump, 10 mg/(kg · d)), 3-day treatment oxycodone, testing dose 0.75 mg/kg SC, Day −1, n = 8) it was 49.32 ± 32.89 % MPE. Moreover, the Tail flick results in series [5] (Biphasic dosing (SC infusion, syringe pump, 10 mg/(kg · d)), 3-day treatment oxycodone, testing dose 1 mg/kg SC, Day +3, n = 8) amounted to 30.73 ± 19.05 % MPE; in series [5] (Biphasic dosing (SC infusion, syringe pump, 10 mg/(kg · d)), 3-day treatment oxycodone, testing dose 1 mg/kg SC, Day −1, n = 8) it was 84.61 ± 27.43 % MPE; in series [5] (Biphasic dosing (SC infusion, syringe pump, 10 mg/(kg · d)), 3-day treatment oxycodone, testing dose 1.5 mg/kg SC, Day −1, n = 8) it was 100.00 ± 0.00 % MPE; in series [5] (Biphasic dosing (SC infusion, syringe pump, 10 mg/(kg · d)), 3-day treatment oxycodone, testing dose 3.0 mg/kg SC, Day +3, n = 8), 84.81 ± 26.06 % MPE; in series [5] (Biphasic dosing group, 3-day treatment saline, testing dose 0.25 mg/kg SC, Day +3, n = 8) it was 9.25 ± 12.00 % MPE; in series [5] (Biphasic dosing group, 3-day treatment saline, testing dose 0.25 mg/kg SC, Day −1, n = 8), 13.82 ± 7.87 % MPE. The Tail flick results turned out to be 15.22 ± 12.44 % MPE in series [5] (Biphasic dosing group, 3-day treatment saline, testing dose 0.5 mg/kg SC, Day +3, n = 8); 26.59 ± 22.79 % MPE in series [5] (Biphasic dosing group, 3-day treatment saline, testing dose 0.5 mg/kg SC, Day −1, n = 8); 48.59 ± 39.89 % MPE in series [5] (Biphasic dosing group, 3-day treatment saline, testing dose 0.75 mg/kg SC, Day +3, n = 8); 73.56 ± 28.57 % MPE in series [5] (Biphasic dosing group, 3-day treatment saline, testing dose 0.75 mg/kg SC, Day −1, n = 8); 46.00 ± 18.96 % MPE in series [5] (Biphasic dosing group, 3-day treatment saline, testing dose 1 mg/kg SC, Day +3, n = 7); 89.52 ± 20.25 % MPE in series [5] (Biphasic dosing group, 3-day treatment saline, testing dose 1 mg/kg SC, Day −1, n = 7). Further, the Tail flick results is given as 92.48 ± 16.05 % MPE in series [5] (Biphasic dosing group, 3-day treatment saline, testing dose 1.5 mg/kg SC, Day −1, n = 8); 92.97 ± 15.65 % MPE in series [5] (Biphasic dosing group, 3-day treatment saline, testing dose 3.0 mg/kg SC, Day +3, n = 8); −4.75 ± 8.51 % MPE in series [5] (SZO dosing (SC ALZET, 10 mg/(kg · d)), 3-day treatment oxycodone, testing dose 0 mg/kg, Day +3, n = 8); −2.07 ± 4.18 % MPE in series [5] (SZO dosing (SC ALZET, 10 mg/(kg · d)), 3-day treatment oxycodone, testing dose 0.25 mg/kg SC, Day +3, n = 8); 14.72 ± 16.16 % MPE in series [5] (SZO dosing (SC ALZET, 10 mg/(kg · d)), 3-day treatment oxycodone, testing dose 0.25 mg/kg SC, Day −1, n = 8); 8.48 ± 17.38 % MPE in series [5] (SZO dosing (SC ALZET, 10 mg/(kg · d)), 3-day treatment oxycodone, testing dose 0.5 mg/kg SC, Day +3, n = 8). The Tail flick results in series [5] (SZO dosing (SC ALZET, 10 mg/(kg · d)), 3-day treatment oxycodone, testing dose 0.5 mg/kg SC, Day −1, n = 8) came to 33.12 ± 19.58 % MPE; in series [5] (SZO dosing (SC ALZET, 10 mg/(kg · d)), 3-day treatment oxycodone, testing dose 0.75 mg/kg SC, Day +3, n = 8), 7.90 ± 11.36 % MPE; in series [5] (SZO dosing (SC ALZET, 10 mg/(kg · d)), 3-day treatment oxycodone, testing dose 0.75 mg/kg SC, Day −1, n = 8) it was 60.76 ± 31.45 % MPE; in series [5] (SZO dosing (SC ALZET, 10 mg/(kg · d)), 3-day treatment oxycodone, testing dose 1 mg/kg SC, Day +3, n = 8), 23.75 ± 25.96 % MPE; in series [5] (SZO dosing (SC ALZET, 10 mg/(kg · d)), 3-day treatment oxycodone, testing dose 1 mg/kg SC, Day −1, n = 8) it was 80.15 ± 36.76 % MPE; in series [5] (SZO dosing (SC ALZET, 10 mg/(kg · d)), 3-day treatment oxycodone, testing dose 1.5 mg/kg SC, Day −1, n = 8), 91.44 ± 24.22 % MPE. The Tail flick results is given as 94.35 ± 11.48 % MPE in series [5] (SZO dosing (SC ALZET, 10 mg/(kg · d)), 3-day treatment oxycodone, testing dose 3.0 mg/kg SC, Day +3, n = 8); 7.44 ± 11.94 % MPE in series [5] (SZO dosing group, 3-day treatment saline, testing dose 0.25 mg/kg SC, Day +3, n = 8); 13.69 ± 8.94 % MPE in series [5] (SZO dosing group, 3-day treatment saline, testing dose 0.25 mg/kg SC, Day −1, n = 8); 8.92 ± 11.30 % MPE in series [5] (SZO dosing group, 3-day treatment saline, testing dose 0.5 mg/kg SC, Day +3, n = 8); 21.86 ± 13.71 % MPE in series [5] (SZO dosing group, 3-day treatment saline, testing dose 0.5 mg/kg SC, Day −1, n = 8); 51.09 ± 46.28 % MPE in series [5] (SZO dosing group, 3-day treatment saline, testing dose 0.75 mg/kg SC, Day +3, n = 8). In addition, the Tail flick results in series [5] (SZO dosing group, 3-day treatment saline, testing dose 0.75 mg/kg SC, Day −1, n = 8) worked out at 65.33 ± 32.06 % MPE; in series [5] (SZO dosing group, 3-day treatment saline, testing dose 1 mg/kg SC, Day +3, n = 8) it was 35.55 ± 27.94 % MPE; in series [5] (SZO dosing group, 3-day treatment saline, testing dose 1 mg/kg SC, Day −1, n = 8), 90.33 ± 19.58 % MPE; in series [5] (SZO dosing group, 3-day treatment saline, testing dose 1.5 mg/kg SC, Day −1, n = 8), 100.00 ± 0.00 % MPE; in series [5] (SZO dosing group, 3-day treatment saline, testing dose 3.0 mg/kg SC, Day +3, n = 8) it was 100.00 ± 0.00 % MPE. The “tolerance, SZO dosing regimen versus biphasic dosing regimen” value in series [5] (full ANOVA model, 158 rats) is “not statistically significantly different”. Further, the “tolerance, rats treated with oxycodone for 3 days versus saline” value in series [5] (full ANOVA model, p=0.0039) is recorded as “statistically different”. In series [5] (reduced ANOVA model, not statistically different at α 0.05), the “estimated mean tolerance difference between the SZO dosing regimen and the biphasic dosing regimen” value is −3.2 %MPE. The “estimated mean tolerance difference (Day +3 minus Day −1) between the oxycodone and saline treated rats” value in series [5] (reduced ANOVA model, p=0.0035, testing doses 0-1 mg/kg) is recorded as −10.7 %MPE. Besides, the “onset of action, analgesia occurring” value in series [6] (orally administered) was not above 30 min. Also, the “analgesic action apparent (onset)” value in series [6] (parenterally administered) was not above 15 min.
